Assay results: the NIST ThermoML archive (doi:10.1021/je700647x)

How the values were obtained:
[1] = Ring tensiometer
[2] = xn = mol fraction of the nth substance listed; settings: Ring tensiometer

CCO [ethanol]
Settings	surface tension liquid-gas [mN/m]
[1], 298.15 K	21.85

OCCN(CCO)CCO [triethanolamine] + CCO
surface tension liquid-gas [mN/m], [2]
Settings	x1 = 0.0795	x1 = 0.1461	x1 = 0.2209	x1 = 0.3266	x1 = 0.4581	x1 = 0.6263	x1 = 0.7725	x1 = 0.8489	x1 = 0.9304	x1 = 1
288.15 K	24.1	25.4	27.12	29.68	33.17	37.65	41.56	43.57	45.78	47.64
293.15 K	23.69	25.02	26.77	29.34	32.72	37.11	40.89	42.86	44.96	46.77
298.15 K	23.32	24.7	26.42	28.97	32.29	36.57	40.24	42.16	44.22	45.88
303.15 K	23.02	24.41	26.11	28.61	31.87	36.02	39.61	41.47	43.47	45.16
308.15 K	22.71	24.12	25.78	28.21	31.42	35.48	39	40.83	42.77	44.42
313.15 K	22.35	23.81	25.46	27.79	30.89	34.82	38.21	39.97	41.84	43.4

CCO [ethanol] + CN(CCO)CCO
Settings	surface tension liquid-gas [mN/m]
[2], 298.15 K, x2 = 0	21.85

OCCN(CCO)CCO [triethanolamine]
[1]
Settings	surface tension liquid-gas [mN/m]
288.15 K	47.64
293.15 K	46.77
298.15 K	45.88
303.15 K	45.16
308.15 K	44.42
313.15 K	43.4
